The assay has as its target T1, hBK1 receptor (Homo sapiens, UniProt P46663).
T1 construct: expressed in transfected cells; host or cells: CHO cells (membrane homogenate)
T1 sequence (P46663 1-353): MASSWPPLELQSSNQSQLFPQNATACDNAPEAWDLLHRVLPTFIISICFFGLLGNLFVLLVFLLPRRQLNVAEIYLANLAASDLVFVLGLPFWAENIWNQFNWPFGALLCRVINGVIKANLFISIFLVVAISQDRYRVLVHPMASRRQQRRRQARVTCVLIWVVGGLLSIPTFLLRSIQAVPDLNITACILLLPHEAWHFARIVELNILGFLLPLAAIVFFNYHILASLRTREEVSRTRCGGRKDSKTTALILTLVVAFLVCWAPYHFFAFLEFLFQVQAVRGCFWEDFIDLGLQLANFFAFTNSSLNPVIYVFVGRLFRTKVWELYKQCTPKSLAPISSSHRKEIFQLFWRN
The assay is described as follows: hBK1 receptor binding (radioligand displacement on CHO cell membranes). To be noted: membranes of CHO cells expressing the hBK1 receptor; 0.5 to 1.0 nM [3H]-kallidin (DesArg10, Leu9); 60 minutes at room temperature. Here is the method:
Description of the Method of hBK1 Receptor Binding
CHO cells expressing the hBK1 receptor are cultivated in Dulbecco's modified medium. The medium from confluent cultures is removed and the cells are washed with PBS buffer, scraped off and isolated by centrifugation. The cells are then homogenized in suspension and the homogenate is centrifuged and resuspended. The protein content is determined and the membrane preparation obtained in this manner is then frozen at −80° C. After thawing, 200 μl of the homogenate (50 to 100 μg of proteins/assay) are incubated at room temperature with 0.5 to 1.0 nM of kallidin (DesArg10, Leu9), [3,4-prolyl-3,43H(N)] and increasing concentrations of the test substance in a total volume of 250 μl for 60 minutes. The incubation is terminated by rapid filtration through GF/B glass fibre filters which had been pretreated with polyethyleneimine (0.3%). The protein-bound radioactivity is measured in a TopCount NXT. Non-specific binding is defined as radioactivity bound in the presence of 1.0 μM of […]. The concentration/binding curve is analysed using a computer-assisted nonlinear curve fitting. The Ki which corresponds to the test substance is determined using the data obtained in this manner. […]
(Displacement assays read how much labelled ligand stays bound in the presence of the test substance.)

Usually Ki stands for the equilibrium dissociation constant of an inhibitor or competing ligand from its target. Low values mean tighter binding, high ones weaker binding. `COc1cc(C)c(S(=O)(=O)N(C)CCOCC(=O)N(C)[C@H]2CC[C@H](OCCN(C)C)CC2)c(C)c1` [Example 1] came in with a Ki of 53.6 nM.
With `COc1cc(C)c(S(=O)(=O)N(C)CCOCC(=O)N(C)[C@H]2CC[C@H](OCCN3CCCC3)CC2)c(C)c1` [Example 2] the figure was 15 nM.

These data come from patent publication US20110077231A1, “COMPOUNDS” (BOEHRINGER INGELHEIM INTERNATIONAL GMBH, priority 2007, published 2011).
